Entries after “also recorded” stand apart in the source; their conditions may differ.
How the values were obtained:
Format in all cases: cell-based
[1] = test system: SHH-induced GLI-luciferase activity in SHH-Light2 cells; experiment: SHH-Light2 GLI-dependent firefly luciferase reporter assay
Protocol: Shh-Light2 cells were seeded at 70% confluency in 24 wells, 24 hours prior to treatment. They were then cultured for an additional 48 hours in standard serum-containing media prior to analysis. GLI-binding site luciferase activities were measured using the luciferase reporter assay system with the luciferase kit (PROMEGA).
SHH-light2 cells were treated with SHH (600 ng/ml, R&D) alone or in combination with cyclopamine (CYC), analog 33 or analog 37. CYC, analog 33 and analog 37 were used at […].
One screen involved examining the activation of the SHH pathway using the well-established cell line, SHH-Light2 cells. This cell line is a 3T3 clone that stably expresses a GLI-dependant firefly luciferase (Taipale, et al. (2000) Nature 406:1005-1009). […] Concentrations of each analog, ranging from 20 μM to 2.5 μM, were tested. SHH-Light2 cells were seeded 24 hours prior to treatment. They were then cultured for an additional 48 hours in standard serum-containing media prior to analysis. GLI-binding site luciferase activities were measured using a commercially available luciferase reporter assay system.
The activity of analogs 33 and 37 on the SHH signaling pathway was analyzed using the SHH-Light2 cells described herein.

[2] = test system: granule neuron precursors (GNPs) purified from postnatal mouse cerebella; experiment: SHH-induced granule neuron precursor (GNP) proliferation, BrdU incorporation; design: inhibition of SHH-induced GNP proliferation (percentage BrdU positive): dose or concentration left out as unconfirmed; details: for inhibition of SHH-induced GNP proliferation (BrdU-positive cells): 10 μM, SHH 600 ng/ml, FIG. 2; for inhibition of SHH-induced GNP proliferation (percentage BrdU positive): BrdU 6 hours before fixation, FIG. 5
Protocol: Purified GNPs were either not treated (CTR, n=4) or treated with SHH (600 ng/ml (n=4), alone or in combination with cyclopamine (10 μM, n=4), tomatidine (10 μM, n=4), analog 18 (10 μM, n=4) or estrone 15 (10 μM, n=2). BrdU-positive cells were counted with a fluorescent microscope using a 20× objective, wherein at least ten independent fields for each culture condition were counted per culture condition.
It has previously been shown that SHH is a potent mitogen for granule neuron precursors (GNPs) purified from postnatal mouse cerebella (Dahmane & Ruiz I Altaba (1999) Development 126:3089-3200). This well-established system was used to test the instant steroid-derived cyclopamine analogs for their activity in inhibiting this proliferative response of GNPs to SHH. […] GNPs were purified from postnatal day 5 (P5) mouse cerebella, plated on poly-D-lysine in serum-free DMEM-F12 and treated with either SHH alone or SHH plus the analogs. Treatment with SHH and cyclopamine was used as a control for inhibition.
GNPs were purified from postnatal day 5 (P5) mouse cerebella and treated with either SHH alone, or SHH in combination with cyclopamine, analog 33, or analog 37, each used at […]. BrdU was added to the media 6 hours before fixation. Percentage of brdU positive was determined following counting with a fluorescence microscope using a 20× objective (AXIOSKOP, ZEISS). At least five independent fields for each culture condition were counted. The analysis was performed on three independent experiments. Statistical analysis was performed with the Student t test.

[3] = test system: human medulloblastoma DAOY cells; experiment: DAOY cell survival, colorimetric MTT assay; details: 72 hours treatment; FIG. 6
Protocol: DAOY cells were treated for 72 hours with either cyclopamine (CYC), analog 33 or analog 37 before cell survival was assayed with a colorimetric MTT assay. Absorbance at 570 nm is directly proportional to the number of living cells.
Abnormal activation of the SHH signaling pathway has been linked to various cancers including medulloblastoma, a malignancy of the cerebellum with the highest incidence of all human pediatric malignant brain tumors. A subset of these tumors is thought to arise from deregulation of GNP development in the cerebellum and require SHH signaling for their growth. It was therefore tested whether analogs 33 and 37 were also efficient in reducing the viability of medulloblastoma cells using human medulloblastoma DAOY cells.

SMILES	inhibition of SHH-induced activation of GLI-dependant firefly luciferase ([1]; 2.5 μM, recombinant SHH (200 ng), FIG. 1C)	inhibition of SHH-induced activation of GLI-dependant firefly luciferase ([1]; 5 μM, recombinant SHH (200 ng), FIG. 1B)	inhibition of SHH-induced activation of GLI-dependant firefly luciferase ([1]; 10 μM, recombinant SHH (200 ng), FIG. 1A)	inhibition of SHH-induced GNP proliferation (BrdU-positive cells) [2]	inhibition of SHH-induced reporter activity ([1]; 5 μM, recombinant SHH (200 ng), 48 hours, FIGS. 3 and 4)	inhibition of SHH-induced GNP proliferation (percentage BrdU positive) [2]	cell survival / viability of DAOY cells (absorbance at 570 nm) [3]	inhibition of SHH signaling activity (GLI-luciferase) ([1]; SHH 600 ng/ml, FIG. 4)
C[C@]12CC[C@@H]3c4ccc(O)cc4CC[C@H]3[C@@H]1CC[C@@]21Cc2ncccc2O1 [compound 18]	inhibited SHH activity comparable to cyclopamine	inhibited SHH activity comparable to cyclopamine	effectively inhibited SHH activity	as potent as cyclopamine	–	–	–	–
CC1=C2C[C@H]3[C@@H](CC=C4C[C@@H](O)CC[C@@]43C)[C@@H]2CC[C@]12O[C@@H]1C[C@H](C)CN[C@H]1[C@H]2C [cyclopamine]	–	–	–	significantly decreased cell proliferation	largely blocked	blocked	significant decrease of cell survival	–
C[C@]12CC[C@@H]3c4ccc(O)cc4CC[C@H]3[C@@H]1CC[C@@]21C[C@@H]([C@H]2CCCN2)O1 [compound 37]	–	–	–	–	–	as potent as cyclopamine; also recorded: blocked	significant decrease of cell survival; also recorded: active in reducing DAOY cells viability	strong inhibition of SHH signaling activity comparable to that of cyclopamine
C[C@H]1CC[C@]2(NC1)O[C@H]1C[C@H]3[C@@H]4CC[C@H]5C[C@@H](O)CC[C@]5(C)[C@H]4CC[C@]3(C)[C@H]1[C@@H]2C [tomatidine, reference compound]	–	–	–	had no effect	–	–	–	–

— US8669243B2, “Steroid-derived cyclopamine analogs and methods for using the same in the prevention or treatment of cancer” (The Wistar Institute, priority 2007, dated 2014)
